Experimental findings from patent publication US20230192617A1, “AZABICYCLIC(THIO)AMIDES AS FUNGICIDAL COMPOUNDS” (Bayer CropScience Aktiengesellschaft, priority 2020, published 2023) are described below.

Each structure is given as a SMILES string.

For one series, the system named is Alternaria brassicae. Nature of the series: In vivo preventive test on Alternaria brassicae (leaf spot on radish or cabbage). Conditions: 500 ppm of active ingredient, preventive spray on radish or cabbage, evaluated 3 to 4 days after inoculation, read-out: efficacy. The method, boiled down:
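Protective spray on young radish or cabbage: actives in water diluted from DMSO/acetone/Tween 80, with solvent-only controls. Leaves were challenged after 24 h with a spore suspension, and plants were held at 100% RH, 20 °C for 3 to 4 days.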

A short description of series [1]: Measurement of Log P values by HPLC on reversed phase columns (EEC directive 79/831 Annex V.A8). In kind it is physicochemical. The settings on record: reversed phase HPLC column, method [a]: LC-UV, acidic range, 0.1% formic acid in water and acetonitrile as eluent. Summed up: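 Log P derived from retention on reversed-phase columns (EEC directive 79/831 Annex V.A8), LC-UV, acetonitrile gradient 10% to 95% against water containing 0.1% formic acid, 0.001 M ammonium acetate, or 0.1% phosphoric acid; several values per method separated by "+".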

The test system of the next series is Alternaria alternata. Put plainly: Alternaria alternata in vitro cell test. It counts as cell-based. Conditions: 120 h, 20 ppm of active ingredient, liquid culture, 5 days incubation, spectrometric measurement of mycelium growth, read-out: efficacy (inhibition of fungal growth). Summed up:
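Spectrometric readout of mycelial growth after 5-day incubation gauged compound effects on spore germination and growth of A. alternata in liquid medium. Compounds were delivered in DMSO at ≤1% final. Absorbance was compared with untreated controls to give inhibition.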

Series [2] relates to Pyrenophora teres. Put plainly: In vivo preventive test on Pyrenophora teres (net blotch on barley). Conditions: 240 h, 500 ppm of active ingredient, preventive spray on barley, evaluated 10 days after inoculation, read-out: efficacy. Summed up:
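Net blotch spores were sprayed onto barley leaves one day after foliar treatment with water-diluted DMSO/acetone/Tween 80 formulations (solvent-only controls). Plants were kept at 20° C: first 48 hours at 100% relative humidity, then 8 days at 70-80%.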

In series [3] the test system is Pyrenophora teres. Nature of the series: B-10. Pyrenophora teres in vitro cell test. In kind it is cell-based. Conditions: 144 h, 20 ppm of active ingredient, 6 days incubation, liquid culture, absorbance, read-out: efficacy (inhibition of fungal growth). The method, boiled down:
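Liquid-culture assay on a P. teres spore suspension with compounds added to the medium from DMSO solutions, final DMSO ≤1%. Mycelium growth read spectrometrically after 6 days. Inhibition calculated from absorbance against untreated control wells.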

Series [4] relates to Colletotrichum lindemuthianum. Nature of the series: B-8. Colletotrichum lindemuthianum in vitro cell test. In kind it is cell-based. Conditions: 144 h, 20 ppm of active ingredient, 6 days incubation, liquid culture, absorbance, read-out: efficacy (inhibition of fungal growth). The method, boiled down:
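Liquid-culture germination/growth test: compounds in ≤1% final DMSO were added to spore-containing medium. Fungal growth was quantified spectrophotometrically after 6 days of incubation and expressed as inhibition versus untreated controls.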

In series [5] the test system is Botrytis cinerea. Put plainly: B-11. Botrytis cinerea in vitro cell test. It counts as cell-based. Conditions: 144 h, 20 ppm of active ingredient, 6 days incubation, liquid culture, absorbance, read-out: efficacy (inhibition of fungal growth). The method, boiled down:
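B. cinerea spores were grown in liquid culture with compound (DMSO ≤1% final). Mycelium growth was measured spectrometrically after 6 days, with inhibition taken as absorbance relative to untreated control wells.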

Series [6] relates to Colletotrichum lindemuthianum. Put plainly: In vivo preventive test on Colletotrichum lindemuthianum (leaf spot on bean). The settings on record: 168 h, 500 ppm of active ingredient, preventive spray on bean, evaluated 7 days after inoculation, read-out: efficacy. The method, boiled down: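 Young bean plants sprayed with compound in DMSO/acetone/Tween 80 diluted in water; solvent-only controls. Inoculated 24 h later with C. lindemuthianum spore suspension, then kept 24 h at 20 °C/100% RH and 6 days at 20 °C/90% RH.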

The subject of another series is Septoria tritici. Put plainly: B-9. Septoria tritici in vitro cell test. It counts as cell-based. The settings on record: Zymoseptoria tritici, 168 h; 20 ppm of active ingredient; 7 days incubation; liquid culture, absorbance; read-out: efficacy (inhibition of fungal growth). The method, boiled down: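 Compounds from DMSO stocks (final DMSO ≤1%) were added to liquid medium containing S. tritici spores to test inhibition of germination and mycelial growth. After 7 days, mycelium growth was read spectrometrically and inhibition derived from absorbance versus fungicide-free control wells.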

For the next series, the system named is Sphaerotheca fuliginea. Put plainly: In vivo preventive test on Sphaerotheca fuliginea (powdery mildew on cucurbits). The settings on record: Podosphaera fuliginea, 192 h; 500 ppm of active ingredient; preventive spray on gherkin; evaluated 8 days after inoculation; read-out: efficacy. Summed up:
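This is a preventive spray test on gherkin seedlings, with compound formulated in DMSO/acetone/Tween 80 in water and solvent-only controls. Spore inoculation followed one day after treatment. Incubation lasted 8 days at 20 °C, 70–80% RH.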

Series [7] deals with Botrytis cinerea. Nature of the series: In vivo preventive test on Botrytis cinerea (grey mould). Conditions: 500 ppm of active ingredient, preventive spray on gherkin or cabbage, evaluated 4 to 5 days after inoculation, read-out: efficacy. The method, boiled down: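 Preventive spray on cabbage or gherkin seedlings, with compound formulated in DMSO/acetone/Tween 80 and water-diluted, preceded spore inoculation by 24 hours. Cabbage was held 4 to 5 days at 20° C., 100% relative humidity; gherkin 4 to 5 days at 17° C., 90% relative humidity.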

`Cc1ccc(CCNC(=O)c2c(Oc3cccc(C(F)(F)F)c3)cnc3c2CCC3)c(C)c1` [I-157]: the pest or weed control at 500 ppm (in the series with Alternaria brassicae; with Pyrenophora teres [2]; in series [6]; with Sphaerotheca fuliginea) was 90 to 100% in each case. For the same molecule, in series [1], the chromatographic logP (commonly a lipophilicity value derived from retention on a column) was determined as 4.23. Moreover, the inhibition at 20 ppm (in the series with Alternaria alternata; with Pyrenophora teres [3]; in series [4]; in the series on Botrytis cinerea [5]; with Septoria tritici) was 90 to 100% each time.
`Cc1cc(Br)ccc1C(F)(F)CNC(=O)c1c(Oc2cccc(Cl)c2F)nnc2c1CCC2` [I-154]: the pest or weed control at 500 ppm (in the series with Alternaria brassicae; in the series with Pyrenophora teres [2]; in series [6]; in the series with Sphaerotheca fuliginea) was 90 to 100% in each case. In addition, the chromatographic logP in [1] came to 4.11. In addition, the inhibition at 20 ppm (in the series with Alternaria alternata; in the series with Pyrenophora teres [3]; in series [4]; with Botrytis cinerea [5]; with Septoria tritici) was 90 to 100% throughout.
On to `Cc1cc(Br)ccc1C(F)(F)CNC(=O)c1c(Oc2cccc(C3CC3)c2F)nnc2c1CCCC2` [I-153], for which the pest or weed control at 500 ppm (in the series with Alternaria brassicae; with Pyrenophora teres [2]; in series [6]; with Sphaerotheca fuliginea) was 90 to 100% each time. Moreover, the inhibition at 20 ppm (in the series on Alternaria alternata; in the series on Pyrenophora teres [3]; in series [4]; in the series with Botrytis cinerea [5]; in the series on Septoria tritici) was 90 to 100% each time.
Consider `O=C(NCC(F)(F)c1ccc(Cl)cc1Cl)c1c(Oc2cccc(C(F)(F)F)c2)nnc2c1CCCC2` [I-189], for which the chromatographic logP in series [1] was found to be 4.23. For the same molecule, the inhibition at 20 ppm (in the series with Alternaria alternata; with Pyrenophora teres [3]; in series [4]; in the series on Botrytis cinerea [5]; in the series on Septoria tritici) was 90 to 100% throughout. The pest or weed control at 500 ppm in the series with Pyrenophora teres [2] fell in the range of 80 to 89%; in series [6], 90 to 100%; with Botrytis cinerea [7], 90 to 100%; in the series on Sphaerotheca fuliginea it was 90 to 100%.
In turn, `O=C(NCC(F)(F)c1ccc(Cl)cc1Cl)c1c(Oc2cccc(C(F)(F)F)c2)nnc2c1CCC2` [I-198] returned a chromatographic logP in series [1] of 4.05. Further, the inhibition at 20 ppm (with Alternaria alternata; in the series with Pyrenophora teres [3]; in series [4]; in the series on Botrytis cinerea [5]; in the series on Septoria tritici) was 90 to 100% throughout. For the same molecule, the pest or weed control at 500 ppm in the series on Pyrenophora teres [2] lay within 80 to 89%; in [6], 90 to 100%; with Botrytis cinerea [7], 90 to 100%; in the series with Sphaerotheca fuliginea, 90 to 100%.
In turn, `O=C(NCC(F)(F)c1ccc(Br)cc1Cl)c1c(Oc2cccc(Cl)c2)nnc2c1CCCC2` [I-209] registered a chromatographic logP in series [1] of 4.11. Further, the inhibition (commonly the drop in the measured response relative to a control, in per cent) at 20 ppm in the series on Alternaria alternata is 90 to 100%; with Pyrenophora teres [3], 90 to 100%; in series [4], 90 to 100%; with Botrytis cinerea [5] it was 90 to 100%; with Septoria tritici, 80 to 89%. In addition, the pest or weed control at 500 ppm (in the series on Pyrenophora teres [2]; in series [6]; with Botrytis cinerea [7]; with Sphaerotheca fuliginea) was 90 to 100% each time.
For `O=C(NCC(F)(F)c1ccc(Cl)cc1Cl)c1c(Oc2cccc(Cl)c2F)nnc2c1CCC2` [I-201], the chromatographic logP in series [1] was found to be 3.94. For the same molecule, the inhibition at 20 ppm (with Alternaria alternata; in the series on Pyrenophora teres [3]; in series [4]; in the series with Botrytis cinerea [5]; in the series with Septoria tritici) was 90 to 100% throughout. In addition, the pest or weed control at 500 ppm (in the series on Pyrenophora teres [2]; in [6]; in the series with Botrytis cinerea [7]; with Sphaerotheca fuliginea) was 90 to 100% in each case.
`O=C(NCC(F)(F)c1ccc(Cl)cc1Cl)c1c(Oc2cccc(Cl)c2)nnc2c1CCCC2` [I-192] returned a chromatographic logP in series [1] of 4. The inhibition at 20 ppm (with Alternaria alternata; with Pyrenophora teres [3]; in series [4]; in the series with Botrytis cinerea [5]; with Septoria tritici) was 90 to 100% in each case. The pest or weed control at 500 ppm (with Pyrenophora teres [2]; in [6]; in the series on Botrytis cinerea [7]; with Sphaerotheca fuliginea) was 90 to 100% throughout.
Molecule `O=C(NCC(F)(F)c1ccc(Cl)cc1Cl)c1c(Oc2cccc(Cl)c2F)nnc2c1CCCC2` [I-194] gave a chromatographic logP in series [1] of 4.05. Moreover, the inhibition at 20 ppm (with Alternaria alternata; in the series with Pyrenophora teres [3]; in [4]; in the series with Botrytis cinerea [5]; with Septoria tritici) was 90 to 100% in each case. Besides, the pest or weed control at 500 ppm (with Pyrenophora teres [2]; in [6]; with Botrytis cinerea [7]; with Sphaerotheca fuliginea) was 90 to 100% each time.
Take `O=C(NCC(F)(F)c1ccc(Br)cc1Cl)c1c(Oc2cccc(Cl)c2F)nnc2c1CCCC2` [I-210]: the chromatographic logP in [1] worked out at 4.4. The inhibition at 20 ppm (in the series with Alternaria alternata; in the series with Pyrenophora teres [3]; in series [4]; in the series on Botrytis cinerea [5]; in the series with Septoria tritici) was 90 to 100% in each case. The pest or weed control at 500 ppm (with Pyrenophora teres [2]; in [6]; in the series on Botrytis cinerea [7]; in the series on Sphaerotheca fuliginea) was 90 to 100% throughout.
Take `O=C(NCC(F)(F)c1ccc(Cl)cc1Cl)c1c(Oc2cccc(C(F)F)c2)nnc2c1CCCC2` [I-191]: the chromatographic logP in series [1] stood at 3.73. Besides, the inhibition at 20 ppm (with Alternaria alternata; with Pyrenophora teres [3]; in series [4]; with Botrytis cinerea [5]; in the series on Septoria tritici) was 90 to 100% each time. Besides, the pest or weed control at 500 ppm (in the series on Pyrenophora teres [2]; in [6]; in the series on Botrytis cinerea [7]; with Sphaerotheca fuliginea) was 90 to 100% in each case.
`Cc1cc(Br)ccc1C(F)(F)CNC(=O)c1c(Oc2cccc(C(F)(F)F)c2)nnc2c1CCC2` [I-206] returned a chromatographic logP in series [1] of 4.17. The inhibition at 20 ppm (in the series with Alternaria alternata; with Pyrenophora teres [3]; in series [4]; in the series with Botrytis cinerea [5]; in the series with Septoria tritici) was 90 to 100% throughout. Also, the pest or weed control at 500 ppm (in the series with Pyrenophora teres [2]; in series [6]; with Botrytis cinerea [7]; with Sphaerotheca fuliginea) was 90 to 100% each time.
